# Source: patent US20120035265A1, “COMPOSITIONS, METHODS, AND DEVICES FOR THE TREATMENT OF DYSMENORRHEA” (MediciNova, Inc., priority 2010, published 2012)
# Where a name gives a salt, the structure may show the parent alone.
# What was measured:
# [1] = test system: uterine muscle isolated from pregnant rats; test: Spontaneous contractions of uterine muscle isolated from pregnant rats (organ bath); assay type: cell-based; conditions: pregnant rat uterine muscle, mean ± standard error, 10 samples
# Description: The experimental operation of this study was as reported by T. Kawarabayashi et al.^1 After each SD-strain rat on Day 21 of pregnancy were exsanguinated to death, the uterus was isolated to prepare up to 8 myometrial strips (about 4 mm×10 mm) in the direction of the longitudinal muscle, with the adhesion to the placenta being avoided.
# Each myometrial strip was suspended in an organ bath containing 10 mL of a Locke-Ringer solution at 37° C. (aerated with 95% O2+5% CO2 gas) with a load of about 1.0 g. After the amplitude and frequency of the muscular spontaneous contractions became stable, distilled water was added. Five minutes later, the test, control, or positive control substance was added cumulatively with intervals of 5 minutes. The myometrial contractile force was delivered to a strain pressure amplifier through a force displacement transducer and recorded on a Rectigraph.
# Considering the sum of the uterine contraction during 5 minutes after the addition of distilled water as 100%, the response rate to each concentration of the test, control, or positive control substance was calculated from the sum of the uterine contraction after each was added. Variable points (peaks) with amplitude (tension) of 0.2 g or lower were excluded from analysis. Samples showing any of the following events were not used for the study or excluded from analysis.
# Microsoft® Excel 2000 (Microsoft Corp.) was used to sum up and analyze data and prepare tables and figures. Using a concentration-response curve obtained for each sample (X axis: log value of the concentration of the drug added, Y axis: response rate), a negative log value (pD2) of the concentration that inhibited the uterine contraction by 50% (EC50) was calculated from a straight line that connects the 2 concentrations above and below 50%, and converted to EC50.
# [2] = test system: uterine muscles isolated from pregnant rabbits; test: Oxytocin-induced contractions of isolated uterine muscles of pregnant rabbits (organ bath); assay type: cell-based, rabbit; conditions: oxytocin (1 mU/mL)-induced contractions, pregnant rabbit uterine muscles; for EC50: Oryctolagus cuniculus, read-out: pD2 values (converted)
# Description: (§1) Uterine muscles of pregnant rabbits were isolated, and experiments were conducted based on organ-bath method. After specimens of uterine muscles were suspended and oxytocin (1 mU/mL)-induced contractions was stabilized, the test substance, control substance or positive control substance was administered every 10 min, while doses were increased gradually. Efficacy of drugs was evaluated by comparing the sum of uterine contraction for 10 min before and after administration of drugs, defining the former as 100%.
# [3] = test system: uterine muscle isolated from pregnant rats; test: Oxytocin-induced contraction of uterine muscle isolated from pregnant rats; assay type: cell-based, rat; conditions: contraction induced with 1 mU/mL of oxytocin, mean ± standard error of 10 samples
# Description: (§2) After SD-strain rats on Day 17 of pregnancy were exsanguinated to death, the uterus was isolated to prepare up to 8 myometrial strips (about 4 mm×10 mm) per animal in the direction of the longitudinal muscle while avoiding the adhesion to the placenta. Each strip was suspended in an organ bath containing 10 mL of a modified Locke-Ringer solution at […] (aerated with 95% O2+5% CO2 gas) with a load of about 1.0 g. After the suspended sample became stable for static tension, 5 μg/mL of PG F2α or 1 mU/mL of oxytocin was added to induce contraction. After the sample was allowed to stand for at least 30 minutes to confirm stable rhythmic contraction for frequency and amplitude, the test, control, or positive control substance solution was added cumulatively at intervals of 5 minutes. After the treatment was completed, 1×10^−5 mol/L of forskolin was added to obtain maximal relaxation. The contractile force of the uterine sample was delivered via a force displacement transducer to a strain pressure amplifier and recorded on a Rectigraph.
# (§3) Considering the sum of the uterine contraction for 5 minutes before treatment as 100%, the response rate to each concentration of the test, control, or positive control substance solution was calculated from the sum of uterine contraction after treatment for both PG F2α and oxytocin induced contraction. Then, the response rates obtained were used to prepare a concentration-response curve for each sample. The maximum relaxation obtained by adding forskolin was considered as a baseline. Variable points (peaks) with amplitude (tension) of […] or lower were excluded from analysis. Samples showing any of the following events were not used for the study or excluded from analysis.
# (§4) Microsoft® Excel 2000 (Microsoft Corp.) was used to sum up and calculate data and prepare tables and figures. Using a concentration-response curve prepared for each sample (X axis: log value of the concentration of the substance added, Y axis: response rate), a negative log value (pEC50) of the concentration that inhibited the uterine contraction by 50% (EC50) was calculated from a straight line connecting the 2 concentrations just above and below 50%, and then converted to EC50 (unit: mol/L).
# [4] = test system: uterine muscles isolated from pregnant rabbits; test: Spontaneous contractions of isolated uterine muscles of pregnant rabbits (organ bath); assay type: cell-based, rabbit; conditions: spontaneous contractions, pregnant rabbit uterine muscles; for EC50: Oryctolagus cuniculus, read-out: pD2 values (converted)
# Description: as §1, with “spontaneous” for “oxytocin (1 mU/mL)-induced”
# [5] = test system: uterine muscle isolated from pregnant rats; test: PG F2α-induced contraction of uterine muscle isolated from pregnant rats; assay type: cell-based, rat; conditions: contraction induced with 5 μg/mL of PG F2α, mean ± standard error of 10 samples
# Description: as §2, §3, §4
# [6] = test system: uterine activity of anesthetized pregnant rats; test: Uterine motility of anesthetized pregnant rats (balloon method); assay type: in vivo, rat; conditions: uterine motility, intravenous cumulative dosing every 15 minutes, urethane-anesthetized pregnant rats
# Description: Rats were anesthetized with urethane, and experiments were conducted based on balloon method. Uterine activity and mean blood pressure of dam were led to a pressure amplifier via a pressure transducer. As for heart rate, pulse waves were led to tachometer. Recti-graphs were used for recording. The test substance, control substance, or positive control substance was administered intravenously and cumulatively every 15 minutes, while doses were increased gradually.
# [7] = test system: uterine muscle isolated from pregnant rats; test: Interaction of MN-221 and β-adrenoceptor antagonists on spontaneous contraction of uterine muscle isolated from pregnant rats (Schild regression); assay type: cell-based, rat
# Description: The experimental operation of this study was as reported by T. Kawarabayashi et al.^4. After each SD-strain rat on Day 21 of pregnancy was exsanguinated to death, the uterus was isolated to prepare 8 myometrial samples (about 4 mm×10 mm) in the direction of the longitudinal muscle, with the adhesion to the placenta being avoided. Each myometrial sample was suspended with a load of about 1.0 g in an organ bath containing 10 mL of the Locke-Ringer solution at 37° C. […] After the suspended samples became stable for the amplitude and frequency of spontaneous contraction, each antagonist or distilled water was added to the bath to pretreat them for about 15 minutes. […] The contractile force of each sample was outputted through a force displacement transducer to a strain pressure amplifier and recorded with a rectigraph.
# Any variable point (peak) with amplitude (tension) of 0.2 g or lower was excluded from analysis. Samples meeting any of the following criteria were rejected or removed from analysis.
# Microsoft® Excel 2000 (Microsoft Corp.) was used for summing up or calculating data and preparing figures and tables. […] This EC50 value was used to calculate the concentration ratio (CR) of EC50 when an antagonist was added (for each sample) to that when no antagonist was added (mean value of the whole control group) and the logarithmic value of CR-1 (log [CR-1]).
# Then, the added concentration of the antagonist was plotted on the X axis (logarithmic value) and log(CR-1) on the Y axis (Schild plot) to calculate the value of the X-axis intercept (pA2) and slope of the line using linear approximation (Schild regression^5). The slope was statistically compared with a slope of 1 (paired t-test; a probability level of less than 5% was considered significant). […] The mean and standard error were calculated for each data point obtained and indicated to two decimal places (or in 3 significant digit).
# [8] = Rattus norvegicus, read-out: EC50
# [9] = Rattus norvegicus, read-out: pEC50 (converted)
EC50 ([1]; read-out: EC50) [nM],EC50 [2] [nM],EC50 [4] [nM],Compound,pD2 values [2],pD2 values [4],ED30 values [6] [µg/kg/min],also measured
0.42 ± 0.1,,,isoproterenol bitartrate,8.53 ± 0.21,8.69 ± 0.17,,pD2 [1]: 9.52±0.13; pEC50 [3]: 9.27±0.03; EC50 ([3]; read-out: EC50): 0.556 ± 0.0412 nM; pEC50 [5]: 8.32±0.05; EC50 ([5]; read-out: EC50): 5.1 ± 0.633 nM
,40.7,89.1,"CC(C)(C)NCC(O)c1cc(O)cc(O)c1 (stereo not shown) [Terbutaline sulfate, terbutaline sulfate]",,,0.72,
,,,"CCc1ccccc1OC[C@@H](O)CN[C@H]1CCCc2ccccc21 [SR 59230A, reference compound]",,,,antagonistic effect on the effect of MN-221 ([7]; at a concentration of up to 3×10^−8 mol/L): no evident antagonistic effect
39.8 ± 13.3,77.6,135,"CC(NCCc1ccc(O)cc1)C(O)c1ccc(O)cc1 (racemic) [Ritodrine hydrochloride, (±)-erythro-1-(p-hydroxyphenyl)-2-[2-(p-hydroxyphenyl)ethylamino]-1-propanol hydrochloride]",,,51.45,"EC50 ([1]; read-out: pD2 (converted)): 25.7 nM; EC50 [3, 8]: 133 ± 16.8 nM; EC50 [3, 9]: 120 nM; EC50 [5, 8]: 3430 ± 720 nM; EC50 [5, 9]: 2630 nM"
,,,"CC(C)(C)NC[C@H](O)c1ccc(O)cc1Cl.O=C(O)C(O)C(O)C(=O)O [HSR-81, meluadrine tartrate]",8.12 ± 0.21,8.21 ± 0.26,0.56,
,,,"Cn1cc(C(F)(F)F)nc1-c1ccc(OCC(O)CNCCOc2ccc(O)c(C(N)=O)c2)cc1 (stereo not shown) [CGP 20712A, reference compound]",,,,antagonistic effect on the effect of MN-221 ([7]; at a concentration of up to 1×10^−8 mol/L): no evident antagonistic effect
